Structures can show the parent of a compound that is named as a salt.
Test system: Chorioallantoic membrance (CAM)
Experiment: CAM angiogenesis Inhibition Test
Type: in vivo, chicken (4 to 5 day old fertilized egg)
Conditions: CAM of fertilized chicken egg, two days after; for Inhibition activity (%): 10 μl/egg in physiological saline or DMSO, 37.6° C., control vascularization settled as 100; for Judgement: class of inhibition activity, significance by Student's t-test, 2880 min
Procedure: Test was carried out by […]-Folkman's method (Nature, 297, 307 (1982)), but partially modified as described in Exp. Path. 30, 143 (1986). Chorioallantoic membrance (CAM) of 4 to 5 day old fertilized chicken egg (Babucock) was exposed. […] Vascularization (angiogenesis) of the control group was settled as 100 and the degree to the test sample was calcurated and expressed as inhibition activity. The significance of activity was determined by Student's t-test and the case over 50 % was indicated to + and the case below 50 % to i as shown in the following table.

| SMILES | Inhibition activity (%) | Judgement |
| --- | --- | --- |
| Cl.O=C(Nc1cc(Cl)cc(Cl)c1)C1=C(C2CCC2)N2CCCN=C2S1 [Example 2, N-(3,5-Dichlorophenyl)-3-cyclobutyl-6,7-dihydro-5H-thiazolo[3,2-a]pyrimidine-2-carboxamide hydrochloride] | 82.5% | + (over 50 %) |
| CCCCCCCCc1ccc(NC(=O)C2=C(C3CCC3)N3CCCN=C3S2)cc1.Cl [Example 8, N-(4-Octylphenyl)-3-cyclobutyl-6,7-dihydro-5H-thiazolo[3,2-a]pyrimidine-2-carboxamide hydrochloride] | 82.7% | + (over 50 %) |
| Cl.O=C(Nc1cc(Cl)cc(Cl)c1)C1=C(C2CCCC2)N2CCCN=C2S1 [Example 9, N-(3,5-Dichlorophenyl)-3-cyclopentyl-6,7-dihydro-5H-thiazolo[3,2-a]pyrimidine-2-carboxamide hydrochloride] | 37.2% |  |
| CCCC1=C(C(=O)Nc2cc(Cl)cc(Cl)c2)SC2=NCCCN21 [Example 13, N-(3,5-dichlorophenyl)-3-propyl-6,7-dihydro-5H-thiazolo[3,2a-]pyrimidine-2-carboxamide hydrochloride] | 76.5% | + (over 50 %) |
| CCCC1=C(C(=O)Nc2ccc(C(C)(C)C)cc2)SC2=NCCCN21.Cl [Example 16, N-(4-tert-Butylphenyl)-3-propyl-6,7-dihydro-5H-thiazolo[3,2-a]pyrimidine-2-carboxamide hydrochloride] | 57.1% | + (over 50 %) |
| CCCCCCCCc1ccc(NC(=O)C2=C(CCC)N3CCCN=C3S2)cc1.Cl [Example 19, N-(4-n-Octylphenyl)-3-propyl-6,7-dihydro-5H-thiazolo[3,2-a]-pyrimidine-2-carboxamide hydrochloride] | 69.3% | + (over 50 %) |
| CCCCC1=C(C(=O)Nc2cc(F)cc(F)c2)SC2=NCCCN21.Cl [Example 39, N-(3,5-Difluorophenyl)-3-butyl-6,7-dihydro-5H-thiazolo[3,2-a]pyrimidine-2-carboxamide hydrochloride] | 32.3% |  |
| CCCCCCCCc1ccc(NC(=O)C2=C(CCC#N)N3CCCN=C3S2)cc1.Cl [Example 82, N-(4-Octylphenyl)-3-(2-cyanoethyl)-6,7-dihydro-5H-thiazolo-[3,2-a]pyrimidine-2-carboxamide hydrochloride] | 88.4% | + (over 50 %) |
| CCCC1=C(C(=O)Nc2ccc(SCCCCCC(=O)O)cc2)SC2=NCCCN21.Cl [Example 90, N-[4-(5-Carboxypentylthio)phenyl]-3-propyl-6,7-dihydro-5H-thiazolo[3,2-a]pyrimidine-2-carboxamide hydrochloride] | 93.2% | + (over 50 %) |
| O=C(O)COC1=C(C(=O)Nc2cc(Cl)cc(Cl)c2)SC2=NCCCN21 [Example 114, N-(3,5-Dichlorophenyl)-3-carboxymethyloxy-6,7-dihydro-5H-thiazolo[3,2-a]pyrimidine-2-carboxamide] | 94.3% | + (over 50 %) |
